From patent US6984499B2, “Method and apparatus for concurrently detecting pathogenic organisms and antimicrobial susceptibility” (IDEXX Laboratories, Inc., priority 1997, dated 2006)

Columns and labels:
[1] = test system: gram negative urinary pathogens (Escherichia coli, Klebsiella spp, Enterobacter spp., Proteus spp.); test: ENR medium (enrofloxacin) in urinary tract infection device; format: cell-based, feline and canine urine specimens
Description: The medium is formulated according to techniques well known to those skilled in the art. The media comprises UTI media with enrofloxacin (ENR) at a concentration of 2.0 mg/liter.
A total of 303 feline and canine urine specimens were collected from the animals suspected of having urinary tract infection were tested with the “ENR” medium. A 50 μl aliquot of the urine specimen was added to 10 ml of sterile saline solution (0.85% NaCl solution). A 100 μl of the diluted urine specimens was added to the “ENR” medium in the urinary tract infection device; the device was then incubated at 35° C. for 24 hours.

[2] = test system: gram negative urinary pathogens (Escherichia coli, Klebsiella spp, Enterobacter spp., Proteus spp.); test: standard Kirby-Bauer antimicrobial susceptibility assay, enrofloxacin; format: cell-based, feline and canine urine specimens; conditions: Total of 58
Description: (§1) For comparison a traditional microbiological culture, bacterial identification technique, and antimicrobial susceptibility test were performed. A portion of 1 μl urine specimen was streaked onto a blood agar plate; the plate was then incubated at 35° C. for 24–48 hours. […] The susceptibility of enrofloxacin of the gram negative urinary pathogens (Escherichia coli, Klebsiella spp, Enterobacter spp., and Proteus spp.) were performed by standard Kirby-Bauer antimicrobial susceptibility assay.

[3] = test system: primary gram negative uropathogens; test: five-well device (TVB, UTI, AMO, AMC, ENR wells), fluorescence, four urine samples; format: cell-based; conditions: Sample 2; incubation 18 hours
Description: In a presently preferred embodiment, this invention comprises a device having a series of 5 test wells. Each well comprises a specific medium coupled with a fluorogenic enzyme substrate for the detection of target bacteria and their respective antibiotic resistance patterns. The wells produce a fluorescent signal when bacteria grow in them.
The wells were termed a total viable bacteria “TVB” well, a primary gram negative urinary tract infection organisms “UTI” well, and individual wells which contain an antimicrobial susceptibility media with an antibiotic amoxicillin “AMO”, clavulanic acid/amoxicillin (Clavamox®) “AMC”, or enrofloxacin (Baytril®) “ENR”.
The total viable bacteria “TVB” well, when it fluoresces, indicates the presence of bacteria in the urine sample. The “UTI” well fluoresces when the common Gram-negative uropathogens (E. coli, Klebsiella or Enterobacter spp., and P. mirabilis) are present in the urine sample. […]
For each device, after an incubation period of 18 hours, the wells were examined for the development of fluorescence and conclusions about the presence of primary urinary pathogens and their susceptibility to the antimicrobial agents employed were drawn.

[4] = test system: Enterobacter cloacae ATCC 13047; test: standard Muller Hinton broth (MHB) microdilution susceptibility; format: cell-based; conditions: E. cloacae
Description: (§2) The representative primary gram negative urinary pathogens including Escherichia coli ATCC 25922, Klebsiella pneumoniae, Enterobacter cloacae ATCC 13047, and Proteus mirabilis were used to determine the antimicrobial efficacy of cephalothin in CR 30 medium in reaction to the standard Muller Hinton microdilution antimicrobial susceptibility ((NCCLS Antimicrobial Susceptibility Testing/SC3, January, 1996). Cephalothin was prepared in both standard Muller Hinton broth (MHB) and CR30 medium (CR30M) at the following concentrations: 128, 64, 32, 16, 8, 4, 2, and 0 mg/liter. Bacterial inocula used for each level of inoculation were 1–5×10^4 cfu/100 μl. The assays were performed in microliter wells at 35° C. for 18 hours.
(§3) The bacteria are defined as “resistant” to cephalothin if the organism has an MIC of ≧32 μg/ml, as “intermediate resistant” if the MIC is 16 μg/ml, and as “susceptible” if the MIC is 8 μg/ml as determined by the standard Muller Hinton broth (Manual of Clinical Microbiology, 6th ed. 1995; ASM Press).

Klebsiella pneumoniae [5] = test: as above; format: cell-based; conditions: K. pneumoniae
Description: as §2, §3

[6] = test system: Escherichia coli ATCC 25922; test: as above; format: cell-based; conditions: E. coli
Description: as §2, §3

Proteus mirabilis [7] = test: as above; format: cell-based; conditions: P. mirabilis
Description: as §2, §3

[8] = test system: Enterobacter cloacae ATCC 13047; test: CR30 medium (CR30M) microdilution susceptibility; format: cell-based; conditions: E. cloacae
Description: (§4) The medium is formulated according to techniques well known to those skilled in the art. The medium comprises the uropathogen specific medium with 32 mg/liter of cephalothin.
as §2, §3

Klebsiella pneumoniae [9] = test: CR30 medium (CR30M) microdilution susceptibility; format: cell-based; conditions: K. pneumoniae
Description: as §4, §2, §3

[10] = test system: Escherichia coli ATCC 25922; test: CR30 medium (CR30M) microdilution susceptibility; format: cell-based; conditions: E. coli
Description: as §4, §2, §3

Proteus mirabilis [11] = test: CR30 medium (CR30M) microdilution susceptibility; format: cell-based; conditions: P. mirabilis
Description: as §4, §2, §3

[12] = test system: gram negative urinary pathogens (Escherichia coli, Klebsiella spp, Enterobacter spp., Proteus spp.); test: AMO medium (amoxicillin) in urinary tract infection device; format: cell-based, feline and canine urine specimens
Description: The medium is formulated according to techniques well known to those skilled in the art. The medium comprises UTI media with amoxicillin at a concentration of 8 mg/liter.
A total of 303 feline and canine urine specimens were collected from the animals suspected of having urinary tract infection were tested with the “AMO” medium. A 50 μl aliquot of the urine specimen was added to 10 ml of sterile saline solution (0.85% NaCl solution). A 100 μl of the diluted urine specimens were added to the “AMO” medium in the urinary tract infection device; the device was then incubated at 35° C. for 24 hours.

[13] = test system: gram negative urinary pathogens (Escherichia coli, Klebsiella spp, Enterobacter spp., Proteus spp.); test: standard Kirby-Bauer antimicrobial susceptibility assay, amoxicillin; format: cell-based, feline and canine urine specimens; conditions: Total of 58
Description: as §1, with “of amoxicillin” for “of enrofloxacin”, “Enterobacter supp.,” for “Enterobacter spp.,”, “spp.) Were” for “spp.) were”

[14] = Susceptible by Kirby-Bauer Assay

CCN1CCN(c2cc3c(cc2F)c(=O)c(C(=O)O)cn3C2CC2)CC1 [Enrofloxacin, enrofloxacin]
number of specimens Resistant in ENR Medium ([1]; Resistant by Kirby-Bauer Assay): 5
number of specimens Susceptible in ENR Medium ([1]; Resistant by Kirby-Bauer Assay): 1
number of specimens Resistant in ENR Medium [1, 14]: 2
number of specimens Susceptible in ENR Medium [1, 14]: 50
number of specimens Resistant in ENR Medium ([1]; Total of 58): 7
number of specimens Susceptible in ENR Medium ([1]; Total of 58): 51
number of specimens Resistant by Kirby-Bauer Assay [2]: 6
number of specimens Susceptible by Kirby-Bauer Assay [2]: 52
susceptibility of primary gram negative uropathogens to the antimicrobial agent [3]: susceptible

CC(=O)OCC1=C(C(=O)O)N2C(=O)[C@@H](NC(=O)Cc3cccs3)[C@H]2SC1 [cephalothin]
categorical susceptibility to cephalothin [4]: resistant
categorical susceptibility to cephalothin (Klebsiella pneumoniae [5]): susceptible
categorical susceptibility to cephalothin [6]: susceptible
categorical susceptibility to cephalothin (Proteus mirabilis [7]): susceptible
categorical susceptibility to cephalothin [8]: resistant
categorical susceptibility to cephalothin (Klebsiella pneumoniae [9]): susceptible
categorical susceptibility to cephalothin [10]: susceptible
categorical susceptibility to cephalothin (Proteus mirabilis [11]): susceptible

CC1(C)S[C@@H]2[C@H](NC(=O)[C@H](N)c3ccc(O)cc3)C(=O)N2[C@H]1C(=O)O [Amoxicillin, amoxicillin]
susceptibility of primary gram negative uropathogens to the antimicrobial agent [3]: resistant
number of specimens Resistant in AMO Medium ([12]; Resistant by Kirby-Bauer Assay): 21
number of specimens Susceptible in AMO Medium ([12]; Resistant by Kirby-Bauer Assay): 1
number of specimens Resistant in AMO Medium [12, 14]: 1
number of specimens Susceptible in AMO Medium [12, 14]: 35
number of specimens Resistant in AMO Medium ([12]; Total of 58): 22
number of specimens Susceptible in AMO Medium ([12]; Total of 58): 36
number of specimens Resistant by Kirby-Bauer Assay [13]: 22
number of specimens Susceptible by Kirby-Bauer Assay [13]: 36
